Key:
[1] = target: Tyrosine-protein kinase HCK (Homo sapiens, UniProt P08631); test: (§1) Fluorescence Resonance Energy Transfer (FRET) Assay: The enzyme inhibitory activity of test compounds was determined by fluorescence resonance energy transfer (FRET) using synthetic peptides labelled with both donor and acceptor fluorophores (Z-LYTE, Invitrogen). Recombinant, phosphorylated p38 MAPK (MAPK12:Millipore) was diluted in HEPES buffer, mixed with compound at the desired final concentrations and incubated for 2 hr at RT. The FRET peptide (2 uM) and ATP (100 uM) were next added to the enzyme/compound mixture and incubated for 1 hr. Development reagent (protease) was added for 1 hr prior to detection in a fluorescence microplate reader. The site-specific protease only cleaves non-phosphorylated peptide and eliminates the FRET signal. Phosphorylation levels of each reaction were calculated using the ratio of coumarin emission (donor) over fluorescein emission (acceptor) with […].
[2] = target: T1, Mitogen-activated protein kinase 12 (Homo sapiens, UniProt P53778); test: as §1
T1 sequence (P53778 whole entry): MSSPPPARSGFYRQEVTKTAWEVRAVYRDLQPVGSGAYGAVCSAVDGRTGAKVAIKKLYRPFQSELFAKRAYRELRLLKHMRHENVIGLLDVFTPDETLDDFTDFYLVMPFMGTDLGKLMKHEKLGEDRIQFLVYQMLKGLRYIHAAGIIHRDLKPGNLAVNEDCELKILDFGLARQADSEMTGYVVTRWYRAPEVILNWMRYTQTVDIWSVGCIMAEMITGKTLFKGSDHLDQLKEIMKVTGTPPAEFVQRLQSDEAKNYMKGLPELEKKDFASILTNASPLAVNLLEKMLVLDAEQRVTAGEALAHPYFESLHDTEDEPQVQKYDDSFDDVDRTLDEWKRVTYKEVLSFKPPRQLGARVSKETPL

[3] = target: Proto-oncogene tyrosine-protein kinase Src (Homo sapiens, UniProt P12931); test: as §1

Compound: Cc1ccc(-n2nc(C(C)C)cc2NC(=O)Nc2ccc(Oc3ccnc4[nH]c(=O)cnc34)c3ccccc23)cc1
- IC50 [1]: 4 nM
- IC50 [2]: 39 nM
- IC50 [3]: 8 nM

Compound: CC(C)(C)c1cc(NC(=O)Nc2ccc(Oc3ccnc4[nH]c(=O)cnc34)c3ccccc23)n(-c2ccc(Cl)c(Cl)c2)n1
- IC50 [2]: 89 nM
- IC50 [3]: 6 nM

Compound: Cc1ccc(-n2nc(C(C)(C)C)cc2NC(=O)Nc2ccc(Oc3ccnc4[nH]c(=O)cnc34)c3ccccc23)s1
- IC50 [1]: 3 nM
- IC50 [2]: 41 nM

Reference: ChEMBL document CHEMBL3639041, “Respiratory formulations and compounds for use therein” (2015)
